According to patent publication US5795561A, “Radioiodinated phospholipid ether analogues” (The Board of Regents of the University of Michigan, priority 1994, dated 1998):
Where two headings read alike, the source gives them in different places. Values belong to the compound of their own block, whether it stands above or below them.

How the values were obtained:
[1] = system: Walker 256 sarcoma; assay: Tissue distribution of radioactivity after IV administration in rats bearing Walker 256 sarcoma (Tables 1-4); format: in vivo, female Sprague Dawley rats
Description: (§1) Radiolabelled compounds 1-[12-(m-iodophenyl)-dodecyl]-2-methyl-rac-glycero-3-phosphocholine (ET-12IP-OMe; Example 2, compound 18) and 1-[12-(m-iodophenyl)-dodecyl]-propanediol-3-phosphocholine (ET-12IP-OH; Example 3, compound 24) were prepared and administered to two sets of female Sprague Dawley rats: normal rats (control) and rats bearing tumors resulting from Walker 256 sarcoma cells which had been implanted into the thigh. The labelled compounds (5-35 μCi ^125 I) were administered intravenously in a 2% Tween 20-saline vehicle. At various times following administration the animals were sacrificed, and selected tissue samples were removed. The tissue samples were weighed and placed in cellulose acetate capsules. The radioactivity was then counted (85% efficiency) using a well scintillation counter (Searle 1185).

[2] = as above; format: in vivo, female Sprague Dawley rats; details: rat, 125I-labelled; for tissue uptake at 6 h: 6 hours after IV; for tissue uptake at 24 h: 24 hours after IV
Description: as §1

[3] = Tissue distribution of radioactivity after IV administration in normal (control) rats (Tables 1-4); format: in vivo, female Sprague Dawley rats; details: rat, 125I-labelled; for tissue uptake at 6 h: 6 hours after IV, N = 3, mean ± standard error; for tissue uptake at 24 h: 24 hours after IV
Description: as §1

[4] = system: inflammatory granuloma lesions; details: rat, in vivo
Description: (§2) Both types of lesions were located in the thigh of the rat. Tumor bearing lesions were produced by implantation of Walker 256 sarcoma cells and inflammatory granuloma lesions were developed using carrageenan irritation in accordance with the method described by Atkinson, et al., Agents and Actions, Vol. 8, pages 263-267, 1978.

[5] = system: Walker 256 sarcoma; details: rat, in vivo
Description: as §2

[6] = Tissue distribution 24 hours after I.V. administration to rats bearing the Walker-256 carcinosarcoma (Tables 5 and 6); format: in vivo, Sprague-Dawley rats; details: rat, iv, tumor-bearing rats
Description: Tissue distribution studies were conducted with the alkyl lysophospholipid analogues of general Formula II.

[7] = system: inflammatory granuloma lesions; assay: Gamma-camera scintigraphy in rats bearing inflammatory lesions (granuloma)
Description: as §2

[8] = system: tumor; details: background; cited from earlier work
[9] = system: Walker 256 sarcoma; assay: Gamma-camera scintigraphy in tumor-bearing rats
Description: as §2

[10] = system: human HTB 77 ovarian adenocarcinoma, NCI 69 human small cell carcinoma, and human HTB 63 melanoma; assay: In vivo tumor localization and scintigraphy in athymic nude mice with subcutaneous human tumors (Example 8)
[11] = system: human tumor models; assay: Tissue distribution in athymic mice human tumor models (FIG. 17); format: in vivo, athymic nude mice; details: 13 days post-administration, % dose/gram of tissue plotted (FIG. 17)
Description: FIG. 17 is a bar graph showing tissue distribution in the blood, liver, and specified tumor tissue of radioiodinated 12-(m-iodophenyl)-dodecyl phosphocholine in nude mice 13 days post-administration; and
Tumor:blood levels greater than 25:1 were recorded in all athymic mice human tumor models.
FIG. 17 is a bar graph showing the tissue distribution in the blood, liver, and specified tumor tissue of compound 50 in nude mice 13 days post-administration. The data is expressed in terms of % dose/gram of tissue.

[12] = system: HTB 63 human melanoma tumors; assay: Tissue distribution in nude mice bearing HTB 63 human melanoma tumors (FIG. 18); format: in vivo; details: 13 days post-injection (FIG. 18)
Excerpt: FIG. 18 is a bar graph showing tissue distribution of radioiodinated 12-(m-iodophenyl)-dodecyl phosphocholine in nude mice bearing HTB 63 human melanoma tumors at 13 days post-injection.
FIG. 18 is a bar graph which vividly illustrates the relative difference in tissue concentration of compound 50 in nude mice bearing HTB 63 human melanoma tumors at 13 days post-injection. The tissue concentration in the tumor tissue is remarkable.

[13] = system: Walker 256 sarcomas; assay: In vivo tumor localization in rats with intramuscular Walker 256 sarcomas (Example 8); design: species or system Sprague-Dawley rats; details: intravenous injection
Description: 12-(m-Iodophenyl)dodecyl phosphocholine (compound 50) was administered by intravenous injection to Sprague-Dawley rats with intramuscular Walker 256 sarcomas and athymic nude mice with subcutaneous human tumors, specifically, human HTB 77 ovarian adenocarcinoma, NCI 69 human small cell carcinoma, and human HTB 63 melanoma.

[14] = blood, tumor-bearing rats, N = 3, mean ± standard error, read-out: Radioactivity in blood
[15] = kidney, tumor-bearing rats, N = 3, mean ± standard error, read-out: Radioactivity in kidney
[16] = liver, tumor-bearing rats, N = 3, mean ± standard error, read-out: Radioactivity in liver
[17] = lung, tumor-bearing rats, N = 3, mean ± standard error, read-out: Radioactivity in lung
[18] = muscle, tumor-bearing rats, N = 3, mean ± standard error, read-out: Radioactivity in muscle
[19] = walker 256 tumor, Walker 256 sarcoma implanted in thigh, N = 3, mean ± standard error, read-out: Radioactivity in tumor
[20] = blood, read-out: Radioactivity in blood
[21] = kidney, read-out: Radioactivity in kidney
[22] = liver, read-out: Radioactivity in liver
[23] = lung, read-out: Radioactivity in lung
[24] = muscle, read-out: Radioactivity in muscle
[25] = adrenal, read-out: Distribution of radioactivity: adrenal
[26] = blood, read-out: Distribution of radioactivity: blood
[27] = read-out: Distribution of radioactivity: tumor
[28] = kidney, read-out: Distribution of radioactivity: kidney
[29] = liver, read-out: Distribution of radioactivity: liver
[30] = lung, read-out: Distribution of radioactivity: lung
[31] = muscle, read-out: Distribution of radioactivity: muscle
[32] = thyroid, read-out: Distribution of radioactivity: thyroid
[33] = whole body scans 24 hours after administration

SMILES: COC(COCCCCCCCCCCCCc1cccc([125I])c1)COP(=O)([O-])OCC[N+](C)(C)C (racemic) [ET-12IP-OMe, 1-[12-(m-iodophenyl)-dodecyl]-2-methyl-rac-glycero-3-phosphocholine]
clearance of radioactivity from tissues ([1]; by 24 hours): radioactivity had cleared significantly from all of the tissues except for tumor tissue
tissues with the highest concentrations of radioactivity ([1]; six hours following administration): liver, kidney, and tumor tissues exhibiting the highest concentrations
tissue uptake at 6 h [2, 14]: 0.231 ± 0.008 %ID/g
tissue uptake at 24 h [2, 14]: 0.096 ± 0.023 %ID/g
tissue uptake at 6 h [2, 15]: 1.31 ± 0.091 %ID/g
tissue uptake at 24 h [2, 15]: 0.463 ± 0.111 %ID/g
tissue uptake at 6 h [2, 16]: 3.59 ± 0.189 %ID/g
tissue uptake at 24 h [2, 16]: 0.743 ± 0.105 %ID/g
tissue uptake at 6 h [2, 17]: 0.873 ± 0.081 %ID/g
tissue uptake at 24 h [2, 17]: 0.299 ± 0.017 %ID/g
tissue uptake at 6 h [2, 18]: 0.046 ± 0.001 %ID/g
tissue uptake at 24 h [2, 18]: 0.027 ± 0.006 %ID/g
tissue uptake at 6 h [2, 19]: 1.12 ± 0.024 %ID/g
tissue uptake at 24 h [2, 19]: 1.11 ± 0.016 %ID/g
tissue uptake at 6 h [3, 20]: 0.105 ± 0.009 %ID/g
tissue uptake at 24 h ([3]; blood, N = 4, mean ± standard error, read-out: Radioactivity in blood): 0.085 ± 0.001 %ID/g
tissue uptake at 6 h [3, 21]: 0.65 ± 0.114 %ID/g
tissue uptake at 24 h ([3]; kidney, N = 4, mean ± standard error, read-out: Radioactivity in kidney): 0.426 ± 0.03 %ID/g
tissue uptake at 6 h [3, 22]: 1.74 ± 0.125 %ID/g
tissue uptake at 24 h ([3]; liver, N = 4, mean ± standard error, read-out: Radioactivity in liver): 0.675 ± 0.02 %ID/g
tissue uptake at 6 h [3, 23]: 0.356 ± 0.012 %ID/g
tissue uptake at 24 h ([3]; lung, N = 4, mean ± standard error, read-out: Radioactivity in lung): 0.218 ± 0.01 %ID/g
tissue uptake at 6 h [3, 24]: 0.023 %ID/g
tissue uptake at 24 h ([3]; muscle, N = 4, mean ± standard error, read-out: Radioactivity in muscle): 0.034 ± 0.004 %ID/g
localization in the inflammatory lesion [4]: little activity was associated with this area
localization in tumor [5]: capable of localizing in the tumor
tissue uptake at 24 h [6, 25]: 0.436 %ID/g
tissue uptake at 24 h [6, 26]: 0.096 %ID/g
tissue uptake at 24 h [6, 27]: 1.11 %ID/g
tissue uptake at 24 h [6, 28]: 0.463 %ID/g
tissue uptake at 24 h [6, 29]: 0.743 %ID/g
tissue uptake at 24 h [6, 30]: 0.299 %ID/g
tissue uptake at 24 h [6, 31]: 0.027 %ID/g
tissue uptake at 24 h [6, 32]: 7.34 %ID/g

SMILES: O=C([O-])CC(O)(CC(=O)[O-])C(=O)[O-].[67Ga+3] [gallium-67 citrate]
accumulation in granuloma (inflammatory lesion), scintigraphic scan ([7]; 24 hours after administration, for ET-12IP-OMe in relation to liver): high accumulation
accumulation in liver (scintigraphic scan) ([7]; granuloma-bearing rat, 24 hours after administration): high accumulation
localization in the inflammatory lesion [7, 33]: found to localize in the inflammatory lesion
accumulation in inflammatory lesions [8]: also accumulates in a variety of other inflammatory lesions
alteration of distribution by steroidal and antineoplastic drugs [8]: can be altered by a variety of steroidal and antineoplastic drugs
localization in tumor [8]: will localize, or accumulate, in a tumor
accumulation in tumor (scintigraphic scan) ([9]; 24 hours after administration): high accumulation
accumulation in liver (scintigraphic scan) ([9]; tumor-bearing rat, 24 hours after administration): low accumulation
localization in tumor [9, 33]: capable of localizing in the tumor

SMILES: CCCCCCCCCCCCCCCCOP(=O)([O-])OCC[N+](C)(C)Cc1cccc(I)c1 [Compound 60, hexadecyl-2-[N,N-dimethyl-N-(m-iodobenzyl)-ammonium] ethylphosphate]
localization in tumor tissues ([10]; similar studies to those with compound 50 (rat and athymic mouse models)): exhibited localization in tumor tissues

The next lines start with results.

tissue uptake at 6 h [2, 14]: 0.239 ± 0.024 %ID/g
tissue uptake at 24 h ([2]; blood, tumor-bearing rats, N = 3, mean ± standard error (Table 4), read-out: Radioactivity in blood): 0.036 ± 0.004 %ID/g
tissue uptake at 6 h [2, 15]: 1.77 ± 0.108 %ID/g
tissue uptake at 24 h ([2]; kidney, tumor-bearing rats, N = 3, mean ± standard error (Table 4), read-out: Radioactivity in kidney): 0.235 ± 0.018 %ID/g
tissue uptake at 6 h [2, 16]: 0.892 ± 0.083 %ID/g
tissue uptake at 24 h ([2]; liver, tumor-bearing rats, N = 3, mean ± standard error (Table 4), read-out: Radioactivity in liver): 0.139 ± 0.01 %ID/g
tissue uptake at 6 h [2, 17]: 0.525 %ID/g
tissue uptake at 24 h ([2]; lung, tumor-bearing rats, N = 3, mean ± standard error (Table 4), read-out: Radioactivity in lung): 0.105 %ID/g
tissue uptake at 6 h [2, 18]: 0.05 ± 0.009 %ID/g
tissue uptake at 24 h ([2]; muscle, tumor-bearing rats, N = 3, mean ± standard error (Table 4), read-out: Radioactivity in muscle): 0.014 ± 0.001 %ID/g
tissue uptake at 6 h [2, 19]: 1.03 ± 0.158 %ID/g
tissue uptake at 24 h ([2]; walker 256 tumor, Walker 256 sarcoma implanted in thigh, N = 3, mean ± standard error (Table 4), read-out: Radioactivity in tumor): 0.463 ± 0.063 %ID/g
tissue uptake at 6 h [3, 20]: 0.475 ± 0.078 %ID/g
tissue uptake at 24 h ([3]; blood, N = 3, mean ± standard error (Table 4), read-out: Radioactivity in blood): 0.047 ± 0.035 %ID/g
tissue uptake at 6 h [3, 21]: 2.6 ± 0.107 %ID/g
tissue uptake at 24 h ([3]; kidney, N = 3, mean ± standard error (Table 4), read-out: Radioactivity in kidney): 0.257 ± 0.01 %ID/g
tissue uptake at 6 h [3, 22]: 1.35 ± 0.047 %ID/g
tissue uptake at 24 h ([3]; liver, N = 3, mean ± standard error (Table 4), read-out: Radioactivity in liver): 0.142 ± 0.033 %ID/g
tissue uptake at 6 h [3, 23]: 0.816 ± 0.031 %ID/g
tissue uptake at 24 h ([3]; lung, N = 3, mean ± standard error (Table 4), read-out: Radioactivity in lung): 0.129 ± 0.013 %ID/g
tissue uptake at 6 h [3, 24]: 0.083 ± 0.009 %ID/g
tissue uptake at 24 h ([3]; muscle, N = 3, mean ± standard error (Table 4), read-out: Radioactivity in muscle): 0.025 ± 0.001 %ID/g
SMILES: C[N+](C)(C)CCOP(=O)([O-])OCCCOCCCCCCCCCCCCc1cccc([125I])c1 [ET-12IP-H, 1-[12-(m-iodophenyl)-dodecyl]-propanediol-3-phosphocholine]
tissue uptake at 24 h [6, 25]: 0.274 %ID/g
tissue uptake at 24 h [6, 26]: 0.036 %ID/g
tissue uptake at 24 h [6, 27]: 0.463 %ID/g
tissue uptake at 24 h [6, 28]: 0.235 %ID/g
tissue uptake at 24 h [6, 29]: 0.139 %ID/g
tissue uptake at 24 h [6, 30]: 0.105 %ID/g
tissue uptake at 24 h [6, 31]: 0.014 %ID/g
tissue uptake at 24 h [6, 32]: 8.45 %ID/g

tissue concentration in the tumor tissue [12]: remarkable
tumor localization [13]: excellent tumor localization
tumor localization ([10]; intravenous injection): excellent tumor localization
SMILES: C[N+](C)(C)CCOP(=O)([O-])OCCCCCCCCCCCCc1cccc(I)c1 [compound 50, 12-(m-iodophenyl)-dodecyl phosphocholine]
tissue distribution in blood, liver and specified tumor tissue [11]: the tumor contained the largest amount of radioactivity
clearance of background activity ([10]; beyond five days post-injection): all background activity had cleared from the liver and gastrointestinal tract
